# Assay results from patent US10071957B2, “N-substituted benzamides and methods of use thereof” (GENENTECH, INC., priority 2012, dated 2018).
# Target: hNaV1.7 (Homo sapiens (Human), UniProt Q15858)
# Assay: Competitive binding of tritiated compound to membranes from cells expressing hNav1.7 and the β1 subunit
# Details: 100 pM [3H]compound, 18 h, room temperature; read-out: NaV1.7 395 Membrane Binding IC50
# Procedure: Tritiated compound binding to membranes isolated from cells that heterologously express hNav1.7 and the β1 subunit
# Preparation of membranes containing recombinantly expressed sodium channels: Frozen recombinant cell pellets were thawed on ice and diluted to 4 times the cell pellet weight with ice cold 50 mM Tris HCl, pH 7.4 buffer. The cell suspensions were homogenized on ice using a motorized glass dounce homogeniser. Homogenates were further diluted 8.4 times with ice cold 50 mM Tris HCl, pH 7.4 buffer and then centrifuged at 200×g at 4° C. for 15 min. The supernatants were collected and centrifuged at 10000×g at 4° C. for 50 min. The pellets were then re-suspended in 100 mM NaCl, 20 mM Tris HCl, pH 7.4 buffer containing 1% v/v protease inhibitors (Calbiochem) and re-homogenized on ice. The homogenized membranes were then processed through a syringe equipped with a 26 gauge needle. Protein concentrations were determined by Bradford Assay and the membranes were stored at −80° C.
# Radioligand Binding Studies: Saturation experiments. A representative compound of formula (I) was tritiated. Three tritiums were incorporated in place of methyl hydrogens to generate [^3H]compound. Binding of this radioligand was performed in 5 mL borosilicate glass test tubes at room temperature. Binding was initiated by adding membranes to increasing concentrations of [^3H]compound in 100 mM NaCl, 20 mM Tris HCl, pH 7.4 buffer containing 0.01% w/v bovine serum albumin (BSA) for 18 h. Non-specific binding was determined in the presence of 1 μM unlabelled compound. After 18 h, the reactants were filtered through GF/C glass fiber filters presoaked in 0.5% w/v polyethylene imine. Filters were washed with 15 mL ice cold 100 mM NaCl, 20 mM Tris HCl, pH 7.4 buffer containing 0.25% BSA to separate bound from free ligand. [^3H]compound bound to filters was quantified by liquid scintillation counting.
# Competitive binding experiments. Binding reactions were performed in 96-well polypropylene plates at room temperature for 18 h. In 360 μL, membranes were incubated with 100 pM [^3H]compound and increasing concentrations of Test Compound. Non-specific binding was defined in the presence of 1 μM unlabelled compound. Reactions were transferred and filtered through 96-well glass fiber/C filter plates presoaked with 0.5% polyethylene imine. The filtered reactions were washed 5 times with 200 μL ice cold buffer containing 0.25% BSA. Bound radioactivity was determined by liquid scintillation counting.
# Data Analysis: For saturation experiments, non-specific binding was subtracted from total binding to provide specific binding and these values were recalculated in terms of pmol ligand bound per mg protein. Saturation curves were constructed and dissociation constants were calculated using the single site ligand binding model: Beq=(Bmax*X)/(X+Kd), where Beq is the amount of ligand bound at equilibrium, Bmax is the maximum receptor density, Kd is the dissociation constant for the ligand, and X is the free ligand concentration. For competition studies percent inhibition was determined and IC50 values were calculated using a 4 parameter logistic model (% inhibition=(A+((B−A)/(1+((x/C)^D)))) using XLfit, where A and B are the maximal and minimum inhibition respectively, C is the IC50 concentration and D is the (Hill) slope.
# Chain of hNaV1.7 (Q15858 whole entry, looked up): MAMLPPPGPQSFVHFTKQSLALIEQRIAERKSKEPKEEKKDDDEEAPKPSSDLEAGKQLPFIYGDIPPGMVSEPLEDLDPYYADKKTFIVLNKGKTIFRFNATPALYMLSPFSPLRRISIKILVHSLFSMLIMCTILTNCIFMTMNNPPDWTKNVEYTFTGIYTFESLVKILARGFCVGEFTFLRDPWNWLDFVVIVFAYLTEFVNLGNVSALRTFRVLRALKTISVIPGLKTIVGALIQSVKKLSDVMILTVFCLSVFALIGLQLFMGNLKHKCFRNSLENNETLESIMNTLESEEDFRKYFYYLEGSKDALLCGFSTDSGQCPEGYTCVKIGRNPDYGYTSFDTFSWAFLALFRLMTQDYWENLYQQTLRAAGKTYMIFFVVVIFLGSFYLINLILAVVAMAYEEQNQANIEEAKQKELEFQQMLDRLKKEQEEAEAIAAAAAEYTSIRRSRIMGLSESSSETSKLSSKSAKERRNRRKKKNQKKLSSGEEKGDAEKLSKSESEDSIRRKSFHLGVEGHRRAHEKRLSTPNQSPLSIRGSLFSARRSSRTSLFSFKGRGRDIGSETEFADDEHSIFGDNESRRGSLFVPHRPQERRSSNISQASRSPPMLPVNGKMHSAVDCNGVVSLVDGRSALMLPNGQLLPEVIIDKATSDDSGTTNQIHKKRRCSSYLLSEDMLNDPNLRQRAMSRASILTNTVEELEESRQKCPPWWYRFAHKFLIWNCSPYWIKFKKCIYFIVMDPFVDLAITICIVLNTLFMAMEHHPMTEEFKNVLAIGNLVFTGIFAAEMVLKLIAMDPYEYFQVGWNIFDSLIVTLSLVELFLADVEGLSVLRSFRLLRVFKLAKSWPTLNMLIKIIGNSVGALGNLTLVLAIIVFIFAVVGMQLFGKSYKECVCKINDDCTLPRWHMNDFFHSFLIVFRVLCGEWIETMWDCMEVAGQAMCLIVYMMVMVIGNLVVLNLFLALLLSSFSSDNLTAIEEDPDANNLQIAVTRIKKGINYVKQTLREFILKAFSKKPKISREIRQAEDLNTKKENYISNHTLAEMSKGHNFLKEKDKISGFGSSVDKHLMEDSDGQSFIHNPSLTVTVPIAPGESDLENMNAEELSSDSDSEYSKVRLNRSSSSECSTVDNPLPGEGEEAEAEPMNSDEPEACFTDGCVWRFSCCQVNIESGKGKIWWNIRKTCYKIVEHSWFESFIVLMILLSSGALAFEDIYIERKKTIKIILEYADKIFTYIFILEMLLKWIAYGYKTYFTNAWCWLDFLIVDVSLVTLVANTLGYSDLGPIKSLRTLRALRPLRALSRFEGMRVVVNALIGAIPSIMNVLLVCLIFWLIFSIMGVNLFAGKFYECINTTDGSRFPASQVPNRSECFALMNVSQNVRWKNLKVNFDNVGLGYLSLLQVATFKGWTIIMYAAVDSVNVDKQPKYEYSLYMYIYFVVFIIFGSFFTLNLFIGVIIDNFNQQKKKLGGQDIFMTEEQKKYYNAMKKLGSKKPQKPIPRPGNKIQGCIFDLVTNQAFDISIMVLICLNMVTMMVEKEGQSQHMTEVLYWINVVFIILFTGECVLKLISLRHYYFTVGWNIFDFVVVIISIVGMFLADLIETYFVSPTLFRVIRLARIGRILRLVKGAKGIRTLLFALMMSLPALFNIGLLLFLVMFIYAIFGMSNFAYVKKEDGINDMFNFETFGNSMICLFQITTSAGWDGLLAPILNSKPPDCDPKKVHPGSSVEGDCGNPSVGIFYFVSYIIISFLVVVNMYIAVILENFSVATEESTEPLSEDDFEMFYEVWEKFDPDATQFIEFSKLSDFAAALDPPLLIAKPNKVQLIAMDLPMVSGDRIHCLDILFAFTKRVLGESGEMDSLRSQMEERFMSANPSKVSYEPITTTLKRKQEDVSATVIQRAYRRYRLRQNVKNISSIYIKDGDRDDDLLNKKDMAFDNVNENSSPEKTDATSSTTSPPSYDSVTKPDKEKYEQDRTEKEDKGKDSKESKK
# Chain of hNaV1.7 (Q07699 whole entry partner, looked up): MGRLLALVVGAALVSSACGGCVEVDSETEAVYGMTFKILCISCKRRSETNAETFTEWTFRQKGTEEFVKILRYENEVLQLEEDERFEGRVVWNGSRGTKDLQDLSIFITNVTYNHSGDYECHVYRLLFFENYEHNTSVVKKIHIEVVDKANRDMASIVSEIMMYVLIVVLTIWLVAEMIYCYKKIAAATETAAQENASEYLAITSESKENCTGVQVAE
row,SMILES,IC50 [µM]
1,"CN(C)S(=O)(=O)NC(=O)c1cc(Cl)c(Oc2cccc3cnccc23)cc1F [Preparation 60, 5-chloro-N-(N,N-dimethylsulfamoyl)-2-fluoro-4-(isoquinolin-5-yloxy)benzamide]",20
2,"CN(C)S(=O)(=O)NC(=O)c1cc(Cl)c(Oc2ccc3cnn(C)c3c2)cc1F [Preparation 62, 5-chloro-N-(N,N-dimethylsulfamoyl)-2-fluoro-4-((1-methyl-1H-indazol-6-yl)oxy) benzamide]",14
3,"COc1ccc(CCOc2cc(F)c(C(=O)NS(=O)(=O)N(C)C)cc2Cl)cc1 [Preparation 57, 5-chloro-N-(N,N-dimethylsulfamoyl)-2-fluoro-4-(4-methoxy-phenethoxy)benzamide]",2.4
4,"CC(C)COc1ncc(Oc2cc(F)c(C(=O)NS(=O)(=O)N(C)Cc3ccccc3)cc2Cl)cc1Cl [Preparation 19, N-(N-benzyl-N-methylsulfamoyl)-5-chloro-4-((5-chloro-6-isobutoxypyridin-3-yl)oxy)-2-fluoro-benzamide]",4.44
5,"CC(C)COc1ncc(Oc2cc(F)c(C(=O)NS(=O)(=O)NCc3cccnc3)cc2Cl)cc1Cl [Preparation 22, 5-chloro-4-((5-chloro-6-isobutoxypyridin-3-yl)oxy)-2-fluoro-N-(N-(pyridin-3-ylmethyl)sulfamoyl) benzamide 2,2,2-trifluoroacetate]",3.58
6,"CN(C)S(=O)(=O)NC(=O)c1cc(Cl)c(Oc2ccc3ccccc3c2)cc1F [Preparation 47, 5-chloro-N-(N,N-dimethylsulfamoyl)-2-fluoro-4-(naphthalen-2-yloxy)benzamide]",4.07
7,CC(C)Oc1ncc(Oc2cc(F)c(C(=O)NS(=O)(=O)N3CCC3)cc2C2(O)COC2)cc1Cl [Preparation 89],1.3
8,"O=C(NS(=O)(=O)c1cccnc1)c1cc(Cl)c(Oc2cnc(OCC(F)(F)C(F)F)c(Cl)c2)cc1F [Preparation 69, 5-chloro-4-((5-chloro-6-(2,2,3,3-tetrafluoro-propoxy)pyridin-3-yl)oxy)-2-fluoro-N-(pyridin-3-ylsulfonyl) benzamide]",0.95
9,"CC(C)COc1ncc(Oc2cc(F)c(C(=O)NS(=O)(=O)N3CCN(C(=O)OC(C)(C)C)CC3)cc2Cl)cc1Cl [Preparation 41, tert-butyl 4-(N-(5-chloro-4-((5-chloro-6-isobutoxy-pyridin-3-yl)oxy)-2-fluorobenzoyl)sulfamoyl)piperazine-1-carboxylate]",3.8
10,"Cc1cc2cc(Oc3cc(F)c(C(=O)NS(=O)(=O)N(C)C)cc3Cl)ccc2[nH]1 [Preparation 59, 5-chloro-N-(N,N-dimethylsulfamoyl)-2-fluoro-4-((2-methyl-1H-indol-5-yl)oxy) benzamide]",5.2
11,O=C(NS(=O)(=O)N1CCC1)c1ccc(Oc2ccc(OC(F)(F)F)c(Cl)c2)c(C2(O)COC2)c1 [Preparation 81],20.2
12,"CN(C)S(=O)(=O)NC(=O)c1cc(F)c(Oc2ccc(OC(F)(F)F)c(Cl)c2)cc1F [Preparation 31, 4-(3-chloro-4-(tri-fluoromethoxy)phenoxy)-N-(N,N-dimethylsulfamoyl)-2,5-difluoro-benzamide]",0.86
13,"CN(C)S(=O)(=O)NC(=O)c1cc(Cl)c(Oc2ccc3ccncc3c2)cc1F [Preparation 73, 5-chloro-N-(N,N-dimethylsulfamoyl)-2-fluoro-4-(isoquinolin-7-yloxy)benzamide]",20
14,"NS(=O)(=O)NC(=O)c1cc(Cl)c(Oc2cnc(Cl)c(Cl)c2)cc1F [Preparation 34, 5-chloro-4-((5,6-dichloropyridin-3-yl)oxy)-2-fluoro-N-sulfamoylbenzamide]",4.68
15,"CN(C)S(=O)(=O)NC(=O)c1cc(Cl)c(Oc2cccc3[nH]ccc23)cc1F [Preparation 55, 4-((1H-indol-4-yl)oxy)-5-chloro-N-(N,N-dimethyl-sulfamoyl)-2-fluoro-benzamide]",20
16,"CC(C)COc1ncc(Oc2cc(F)c(C(=O)NS(=O)(=O)N3CCNCC3)cc2Cl)cc1Cl [Preparation 42, 5-chloro-4-((5-chloro-6-isobutoxypyridin-3-yl)oxy)-2-fluoro-N-(piperazin-1-ylsulfonyl)benzamide]",0.856
17,"CC(C)COc1ncc(Oc2cc(F)c(C(=O)NS(=O)(=O)NCc3ccccc3)cc2Cl)cc1Cl [Preparation 18, N-(N-benzyl-sulfamoyl)-5-chloro-4-((5-chloro-6-isobutoxy-pyridin-3-yl)oxy)-2-fluorobenzamide]",4.18
18,"CN(C)S(=O)(=O)NC(=O)c1cc(Cl)c(Oc2ccc3ncccc3c2)cc1F [Preparation 72, 5-chloro-N-(N,N-dimethylsulfamoyl)-2-fluoro-4-(quinolin-6-yloxy)benzamide]",9.6

# The next molecules have a lower IC50 than those just listed; values first:
row,IC50 [µM],SMILES
1,0.656,"NS(=O)(=O)NC(=O)c1cc(Cl)c(Oc2ccc(F)c(F)c2)cc1F [Preparation 50, 5-chloro-4-(3,4-difluorophenoxy)-2-fluoro-N-sulfamoylbenzamide]"
2,0.461,"NS(=O)(=O)NC(=O)c1cc(Cl)c(COc2cnc(OCC(F)(F)C(F)F)c(Cl)c2)cc1F [Preparation 36, 5-chloro-4-(((5-chloro-6-(2,2,3,3-tetrafluoropropoxy)pyridin-3-yl)oxy)methyl)-2-fluoro-N-sulfamoylbenzamide]"
3,0.34,"CN(C)S(=O)(=O)NC(=O)c1cc(Cl)c(Oc2cc(OC(F)(F)F)ccc2F)cc1F [Preparation 70, 5-chloro-N-(N,N-dimethylsulfamoyl)-2-fluoro-4-(2-fluoro-5-(trifluoromethoxy)phenoxy)benzamide]"
4,0.14,"CN(C)S(=O)(=O)NC(=O)c1cc(Cl)c(Oc2cnc(N3CCCCC3)c(Cl)c2)cc1F [Preparation 63, 5-chloro-4-((5-chloro-6-(piperidin-1-yl)pyridin-3-yl)oxy)-N-(N,N-dimethyl-sulfamoyl)-2-fluoro-benzamide]"
5,0.139,"NS(=O)(=O)NC(=O)c1cc(Cl)c(Oc2ccc3ccccc3c2)cc1F [Preparation 48, 5-chloro-2-fluoro-4-(naphthalen-2-yloxy)-N-sulfamoyl-benzamide]"
6,0.108,"O=C(NS(=O)(=O)NC1CCC1)c1cc(Cl)c(Oc2ccc(OC(F)(F)F)c(Cl)c2)cc1F [Preparation 45, 5-chloro-4-(3-chloro-4-(trifluoromethoxy)phenoxy)-N-(N-cyclobutylsulfamoyl)-2-fluorobenzamide]"
7,0.068,O=C(NS(=O)(=O)N1CCC1)c1cc(Cl)c(COc2cnc(OCC(F)(F)C(F)F)c(Cl)c2)cc1F [Preparation 101]
8,0.052,COc1ncccc1-c1cc(C(=O)NS(=O)(=O)N2CCC2)ccc1Oc1ccc(OC(F)(F)F)c(Cl)c1 [Preparation 97]
9,0.051,O=C(NS(=O)(=O)N1CCC1)c1cc(Cl)c(COc2ccc(Cl)c(Cl)c2)cc1F [Preparation 99]
10,0.043,CNS(=O)(=O)NC(=O)c1ccc(Oc2cnc(OC(C)C)c(Cl)c2)c(-c2cccnc2OC)c1 [Preparation 83]
11,0.035,CNS(=O)(=O)NC(=O)c1cc(Cl)c(COc2ccc(Cl)c(C(F)(F)F)c2)cc1F [Preparation 78]
12,0.026,"O=C(NS(=O)(=O)N1CCCC1)c1cc(Cl)c(Oc2cnc(OCC(F)(F)C(F)F)c(Cl)c2)cc1F [Preparation 66, 5-chloro-4-((5-chloro-6-(2,2,3,3-tetrafluoro-propoxy)pyridin-3-yl)oxy)-2-fluoro-N-(pyrrolidin-1-ylsulfonyl)benzamide]"
13,0.026,O=C(NS(=O)(=O)N1CCC1)c1cc(Cl)c(COc2ccc(Cl)c(C(F)(F)F)c2)cc1F [Preparation 85]
14,0.0228,"CNS(=O)(=O)NC(=O)c1cc(Cl)c(Oc2cnc(OCC(F)(F)C(F)F)c(Cl)c2)cc1F [Preparation 33, 5-chloro-4-((5-chloro-6-(2,2,3,3-tetrafluoro-propoxy)pyridin-3-yl)oxy)-2-fluoro-N-(N-methylsulfamoyl) benzamide]"
15,0.017,O=C(NS(=O)(=O)N1CCC1)c1cc(Cl)c(COc2ccc(OC(F)(F)F)c(Cl)c2)cc1F [Preparation 79]
16,0.009,O=C(NS(=O)(=O)N1CCC1)c1cc(C2CC2)c(Oc2cnc(OCC(F)(F)F)c(Cl)c2)cc1F [Preparation 94]
17,0.006,CNS(=O)(=O)NC(=O)c1cc(C2CC2)c(Oc2cnc(OC(C)C)c(Cl)c2)cc1F [Preparation 90]
